Reference: US7432276B2, “ABCA1 elevating compounds” (CV Therapeutics, Inc., priority 2005, dated 2008)

test system: ABCA1 mRNA; assay: ABCA1 mRNA induction in THP-1 cells, QuantiGene branched DNA assay; type: cell-based; details: 10 μM test compound, 18-20 hours
Description: Modulation of expression of ABCA1 mRNA levels by the compounds of the invention was determined in the following assays.
Induction of ABC1 in THP-1 cells, was measured using QuantiGene® branched DNA assay as per manufacturer's instructions. Cultures of THP-1 were grown to subconfluence in DMEM/10% FBS before replacement with DMEM/BSA and 10 and 3 μM concentrations of the test compounds in DMSO for 18-20 hours. After treatment of cells with compounds, the cells were lysed with lysis buffer at 37° C. for 20 minutes. The cell lysate and ABCA1 specific probe (Genospectra, Inc., Fremont, Calif.) mix were added to the 96 well capture plate and hybridized at 53° C. for 16-18 hours. The signal was amplified using the amplifier and label probes provided with the QuantiGene® assay followed by addition of a luminescent alkaline phosphatase substrate, dioxitane. Luminescence was quantified in Victor V plate reader.
Step 1 • Cells are lysed to release mRNA in the presence of target probes. Target mRNA from lysed cells was then captured by hybridization and transferred to the Capture Plate.
Step 2 • Signal amplification was performed by hybridization of the bDNA Amplifier and Label Probe.
Step 3 • Addition of chemiluminescence substrate yielded a QuantiGene® signal proportional to the amount of mRNA present in the sample.
Table 1 presents the relative fold increase in ABCA1 expression over DMSO for various compounds of the invention when tested at a concentration of […].

| Compound | ABCA1 Induction Fold Increase over DMSO Vehicle [FOLD INCREASE] |
| --- | --- |
| COc1cccc2c1[C@H]1Nc3ccc(-c4csc(C)n4)cc3C(C)(C)[C@H]1CO2 [Number 110, (12aS,6aR)-1-methoxy-7,7-dimethyl-9-(2-methyl(1,3-thiazol-4-yl))-7,12,12a,6a-tetrahydrochromano[4,3-b]quinoline] | 6.0 |
| COc1cccc2c1OCC1C2Nc2ccc(-c3nnn[nH]3)cc2C1(C)C (centres unmarked) [Number 19, 4-methoxy-7,7-dimethyl-9-(1,2,3,4-tetraazol-5-yl)-7,12,12a,6a-tetrahydrochromano[4,3-b]quinoline] | 5.6 |
| CC1(C)c2cc(C(N)=O)ccc2NC2c3cccc(F)c3OCC21 (centres unmarked) [Number 50, 4-fluoro-7,7-dimethyl-7,12,12a,6a-tetrahydrochromano[4,3-b]quinoline-9-carboxamide] | 5.0 |
| CC(C)(C)OC(=O)N1CCN(C(=O)c2ccc3c(c2)C(C)(C)[C@H]2COc4cccc(F)c4[C@H]2N3)CC1 [Number 126, ((6aR,12aS)-6a,7,12,12a-tetrahydro-1-fluoro-7,7-dimethyl-6H-chromeno[4,3-b]quinolin-9-yl)(4-tert-butyl-carboxylate-piperazin-1-yl)methanone] | 7.3 |
| CC1(C)c2cc(C(O)(C(F)(F)F)C(F)(F)F)ccc2N[C@@H]2c3cc(Br)ccc3OC[C@H]21 [Number 3, 2-((12aS,6aS)-2-bromo-7,7-dimethyl(7,12,12a,6a-tetrahydrochromano[4,3-b]quinolin-9-yl))-1,1,1,3,3,3-hexafluoropropan-2-ol] | 3.0 |
| COc1cccc2c1OCC1C2Nc2ccc(N3CCS(=O)(=O)CC3)cc2C1(C)C (centres unmarked) [Number 21, 4-(4-methoxy-7,7-dimethyl-7,12,12a,6a-tetrahydrochromano[4,3-b]quinolin-9-yl)-1,4-thiazaperhydroine-1,1-dione] | 5.6 |
| COc1cccc2c1[C@H]1Nc3ccc(-c4csnn4)cc3C(C)(C)[C@H]1CO2 [Number 73, (12aS,6aR)-1-methoxy-7,7-dimethyl-9-(1,2,3-thiadiazol-4-yl)-7,12,12a,6a-tetrahydrochromano[4,3-b]quinoline] | 8.0 |
| COc1cccc2c1[C@H]1Nc3ccc(F)cc3C(C)(C)[C@H]1CO2 [Number 55, (12aS,6aR)-9-fluoro-1-methoxy-7,7-dimethyl-7,12,12a,6a-tetrahydrochromano[4,3-b]quinoline] | 2.5 |
| CNS(=O)(=O)Cc1ccc2c(c1)C(C)(C)C1COc3c(OC)cccc3C1N2 (centres unmarked) [Number 59, {[(4-methoxy-7,7-dimethyl(7,12,12a,6a-tetrahydrochromano[4,3-b]quinolin-9-yl))methyl]sulfonyl}methylamine] | 6.1 |
| CC(C)=CCOC(=O)c1ccc2c(c1)OCC1C2Nc2ccc(C(O)(C(F)(F)F)C(F)(F)F)cc2C1(C)C (centres unmarked) [Number 12, 3-methylbut-2-enyl 7,7-dimethyl-9-[2,2,2-trifluoro-1-hydroxy-1-(trifluoromethyl)ethyl]-7,12,12a,6a-tetrahydrochromano[4,3-b]quinoline-3-carboxylate] | 4.6 |
| COc1cccc2c1[C@H]1Nc3ccc(-c4nc(C(=O)N5CCS(=O)(=O)CC5)co4)cc3C(C)(C)[C@H]1CO2 [Number 148, 2-((6aR,12aS)-1-methoxy-6a,7,12,12a-tetrahydro-7,7-dimethyl-6H-chromeno[4,3-b]quinolin-9-yl)oxazole-(4-(1,1-dione-1,4-thiazaperhydroin-yl)methanone)] | 11 |
| CC1(C)c2cc(C(O)(C(F)(F)F)C(F)(F)F)ccc2NC2c3ccc(C(=O)O)cc3OCC21 (centres unmarked) [Number 14, 7,7-dimethyl-9-[2,2,2-trifluoro-1-hydroxy-1-(trifluoromethyl)ethyl]-7,12,12a,6a-tetrahydrochromano[4,3-b]quinoline-3-carboxylic acid] | 3.1 |
| COc1cccc2c1OC[C@@H]1[C@@H]2Nc2ccccc2C1(C)C [Number 38, (12aS,6aS)-4-methoxy-7,7-dimethyl-7,12,12a,6a-tetrahydrochromano[4,3-b]quinoline] | 7.0 |
| Cc1cccc2c1OCC1C2Nc2ccc(C(N)=O)cc2C1(C)C (centres unmarked) [Number 29, 4,7,7-trimethyl-7,12,12a,6a-tetrahydrochromano[4,3-b]quinoline-9-carboxamide] | 5.8 |
| COc1cccc2c1C1Nc3ccc(C(O)(C(F)(F)F)C(F)(F)F)cc3C(C)(C)C1CO2 (centres unmarked) [Number 24, 1,1,1,3,3,3-hexafluoro-2-(1-methoxy-7,7-dimethyl(7,12,12a,6a-tetrahydrochromano[4,3-b]quinolin-9-yl))propan-2-ol] | 6.5 |

same assay, conditions: Homo sapiens, 10 μM test compound, 18-20 hours, read-out: ABCA1 Induction Fold Increase over DMSO Vehicle

| Compound | fold induction at 10 µM |
| --- | --- |
| CC1(C)C2=C(Nc3ccc(B(O)O)cc31)c1ccc(C(=O)O)cc1OC2 [Number 17, 9-(dihydroxyboramethyl)-7,7-dimethyl-7,12-dihydro-6H-chromeno[4,3-b]quinoline-3-carboxylic acid] | 1.8 |
| CCS(=O)(=O)N1CCN(C(=O)c2ccc3c(c2)C(C)(C)[C@H]2COc4c(OC)cccc4[C@H]2N3)CC1 [Number 134, ((6aR,12aS)-4-methoxy-6a,7,12,12a-tetrahydro-7,7-dimethyl-6H-chromeno[4,3-b]quinolin-9-yl)(4-ethanesulfonylpiperazin-1-yl)methanone] | 5.8 |
| CCOC(=O)c1cnn(-c2ccc3c(c2)C(C)(C)[C@H]2COc4cccc(OC)c4[C@H]2N3)c1C [Number 116, ethyl 1-((6aR,12aS)-6a,7,12,12a-tetrahydro-1-methoxy-7,7-dimethyl-6H-chromeno[4,3-b]quinolin-9-yl)-5-methyl-1H-pyrazole-4-carboxylate] | 2.7 |
| COc1cccc2c1OC[C@@H]1[C@@H]2Nc2ccc(C(=O)N3CCOCC3)cc2C1(C)C [Number 120, ((6aS,12aS)-6a,7,12,12a-tetrahydro-4-methoxy-7,7-dimethyl-6H-chromeno[4,3-b]quinolin-9-yl)(morpholino)methanone] | 4.2 |
| COC(=O)c1ccc2c(c1)C(C)(C)[C@H]1COc3cccc(OC)c3[C@H]1N2C [Number 153, (6aR,12aS)-methyl 6a,7,12,12a-tetrahydro-1-methoxy-7,7,12-trimethyl-6H-chromeno[4,3-b]quinoline-9-carboxylate] | 7.4 |
| COc1ccccc1-c1ccc2c(c1)C(C)(C)C1=C(c3cccc(F)c3OC1)N2O [Number 104, 4-fluoro-9-(2-methoxyphenyl)-7,7-dimethyl-7,12-dihydro-6H-chromeno[4,3-b]quinolin-12-ol] | 2.9 |
| CCN1c2ccccc2C(C)(C)[C@@H]2COc3cccc(OC)c3[C@H]21 [Number 163, (6aS,12aS)-12-ethyl-6a,7,12,12a-tetrahydro-1-methoxy-7,7-dimethyl-6H-chromeno[4,3-b]quinoline] | 3.1 |
| CCS(=O)(=O)N1CCN(C(=O)c2ccc3c(c2)C(C)(C)[C@@H]2COc4c(F)cccc4[C@H]2N3)CC1 [Number 139, ((6aS,12aS)-4-fluoro-6a,7,12,12a-tetrahydro-7,7-dimethyl-6H-chromeno[4,3-b]quinolin-9-yl)(4-ethanesulfonylpiperazin-1-yl)methanone] | 2.8 |
